{"source": "patent US20170216252A1", "about": "“ANTI-BACTERIAL PYRUVATE KINASE MODULATOR COMPOUNDS, COMPOSITIONS, USES AND METHODS” (SIMON FRASER UNIVERSITY, priority 2014, published 2017)", "key": {"[1]": {"test": "In vivo tolerability (MTD) study", "description": "(§1) The MTD and pharmacokinetic profiles of compounds 123 and 178 administered IV or PO were determined in female CD-1 mice (6-8 weeks of age). Compounds were dissolved in 3% DMSO/6% Solutol® HS 15/10 mM PB (pH7.4) for IV administration and in 3% DMSO/6% Solutol® HS 15/water for oral administration.\nFor tolerability studies, one animal from each group was administered the lowest dose first and then observed for 60 min. […] On the following day, the next higher dose was administered using the same procedure outlined above. Animals were euthanized 24 hours after the last injection, a cardiac puncture blood sample was collected and processed for plasma. Thigh muscle was collected and a necropsy performed."}, "[2]": {"test_system": "VRE#2 (2010A)", "test": "Broth microdilution MIC", "type": "cell-based, vancomycin-resistant Enterococcus", "conditions": "Enterococcus; VRE#2 (2010A); read-out: MIC (μg/mL) F", "description": "(§2) The antimicrobial activities of PK inhibitor candidates were determined using the 96-well microtiter standard 2-fold serial broth microdilution method as described by CLSI (formerly NCCLS) with the various gram-positive and gram-negative bacteria species mentioned above. Bacteria from a single colony were grown, overnight in either BHI Broth (VRE), mueller hinton broth (S. aureus 29213; MRSA USA400) or L-broth (E. coli, P. aeruginosa, S. typhimuriu, K. Pneumonia and A. baumannii). […] Culture plates were incubated for 18-24 h at 37° C., and optical density at 600 nm (OD600) was measured using a Benchmark Plus™ microplate spectrophotometer (Bio-Rad™). The absorbance control values for the series containing CAMHB and inhibitor were subtracted as background from the corresponding infected wells. The MIC was defined as the lowest concentration of test compound leading to complete inhibition of cell growth in relationship to compound-free control wells as determined by optical density. […] All assays were run in triplicate (Tables 1-6) or duplicate. Experiments were replicated at least twice to verify reproducibility using the above conditions.\n(§3) The antimicrobial activity of selected compounds against the gram negative bacteria Klebsiella pneumoniae, Acinetobacter baumannii, E. coli, Pseudomonas aeruginosa and Salmonella typhimurium, as well as additional gram positive bacteria, including drug-resistant strains, was tested according to the procedures provided under “General Methodologies” above."}, "[3]": {"test_system": "S. aureus ATCC 29123", "test": "Neutropenic mouse Staphylococcus aureus thigh infection model", "type": "in vivo", "conditions": "for median CFU/thigh: 24 h endpoint", "description": "The antimicrobial activity of compound 178 against S. aureus ATCC 29123 was tested in vivo using the neutropenic mouse Staphylococcus aureus thigh infection model. […] Animals were individually monitored for adverse reactions for 30 min post-infection. […] Vancomycin was administered as a solution in PBS. The test compounds were administered as outlined in Table 12 at 2 and 8 hours post-infection and animals were individually monitored for adverse reactions for 30 min after each injection. All animals were then monitored hourly from 20 hours post infection to the endpoint (t=24 hr post infection). At the indicated timepoint, animals were sacrificed and the injected thigh collected. Quantitative enumeration of bacterial load was determined by plating serial dilutions from homogenized thigh muscles. Homogenized muscle was in a total of 2 mL volume, from which a 1 in 10 dilution was prepared (100 μL into 900 μL saline). From this a series of dilutions were prepared and plated on Mueller Hinton agar plates. […] At the end of this time colony counts were determined and the final CFU per mL calculated."}, "[4]": {"test_system": "E. coli (DAS 1-IMP)", "test": "microbe, parasite or virus in culture", "type": "cell-based, Escherichia coli", "conditions": "Escherichia coli, read-out: MIC (μg/mL) C, E. coli (DAS 1-IMP)", "description": "as §2, §3"}, "[5]": {"test": "Pharmacokinetic study", "type": "in vivo, female CD-1 mice", "conditions": "female, CD-1, mouse, plasma", "description": "as §1\nFor the pharmacokinetic study, animals were injected with their respective compound at the dose indicated in 11. At their respective time point, animals were deeply anesthetized with isoflurane and then asphyxiated with CO2. Cardiac puncture blood was collected immediately following death, and the blood processed to generate plasma."}}}
{"smiles": "O=C(c1c(-c2cc3cc(Cl)ccc3[nH]2)[nH]c2cc(Br)ccc12)C(F)(F)F", "note": "[Compound 178, 1-(6-bromo-5′-chloro-1H,1′H-[2,2′-biindol]-3-yl)-2,2,2-trifluoroethan-1-one]", "values": [{"measurement": "Tolerability", "setting": "[1]; IV doses of 30 mg/kg", "value": "well tolerated"}, {"measurement": "Tolerability", "setting": "[1]; PO doses of 10 mg/kg", "value": "well tolerated"}, {"measurement": "MIC", "setting": "[2]", "value": 1, "unit": "µg/mL"}, {"measurement": "log reduction in median counts for CFU/thigh", "setting": "[3]; all treated groups vs untreated control", "value": "≥ 1", "unit": "log"}, {"measurement": "median CFU/thigh", "setting": "[3]; group 3, 3 mg/kg IV at 2 and 8 h", "value": "8.27×10^6 CFU/thigh"}, {"measurement": "median CFU/thigh", "setting": "[3]; group 4, 10 mg/kg IV at 2 and 8 h", "value": "1.38×10^3 CFU/thigh"}, {"measurement": "median CFU/thigh", "setting": "[3]; group 5, PO 10 mg/kg at 2 and 8 h", "value": "1.2×10^2 CFU/thigh"}, {"measurement": "log reduction in median counts", "setting": "[3]; group 5, PO 10 mg/kg vs untreated control", "value": 6, "unit": "log"}, {"measurement": "CFU/thigh of one mouse dosed only once", "setting": "[3]; group 5, PO 10 mg/kg, single dose", "value": "2.2×10^2 CFU/thigh"}, {"measurement": "MIC", "setting": "[4]", "value": "> 64", "unit": "µg/mL"}, {"measurement": "bioavailability", "setting": "[5]; 10 mg/kg, PO administration, read-out: bioavailability (% F)", "value": 21, "unit": "%"}, {"measurement": "Cmax", "setting": "[5]; IV administration at 3 mg/kg", "value": 19, "unit": "µg/mL"}, {"measurement": "half-life", "setting": "[5]; IV administration at 3 mg/kg", "value": 2.27, "unit": "h"}]}
